Measurements from patent publication US7041639B2, “Depsipeptide and congeners thereof for use as immunosuppressants” (XCYTE Therapies, Inc., priority 1999, dated 2006).
“And” between values parts separate entries of the source, which are not always exact repeats. Equal values may be shown once.

Tested on: NODSCID mice
Experiment: Diabetes onset in NODSCID mice given NOD spleen cells
Assay type: in vivo
Conditions: 0.5 mg/kg i.p. every other day
Procedure: FR901228 was dissolved in 10% DMSO in PBS and were administered i.p. to NOD or NODSCID mice every other day. Controls contained only the DMSO excipient (10% DMSO in PBS). […] 0.5 mg/kg of FR901228 was administered at each treatment to twenty animals (ten NOD animals and ten NODSCID animals). Every two weeks the number of mice in each treatment group that had become diabetic was evaluated by measuring blood glucose levels using a glucometer at bi-weekly intervals. A reading of more than 200 mg/dl of blood glucose on two consecutive observations was considered indicative of frank diabetes.

C/C=C1\NC(=O)[C@H]2CSSCC/C=C/[C@H](CC(=O)N[C@H](C(C)C)C(=O)N2)OC(=O)[C@H](C(C)C)NC1=O [FR901228]
delay of onset of frank diabetes versus excipient only (frank diabetes = more than 200 mg/dl on two consecutive observations): at least two | blood glucose / status of single mouse, column 6 (5/9) (NODSCID, head 'age (wks.)' 6, one line per mouse): 261 mg/dL | blood glucose / status of single mouse, (5/23) (NODSCID, head 'age (wks.)' 8, one line per mouse, 0.5 mg/kg): 547 mg/dL and 527 mg/dL | blood glucose / status of single mouse, (6/6) (NODSCID, head 'age (wks.)' 10, one line per mouse, 0.5 mg/kg): 482 mg/dL and 526 mg/dL and 343 mg/dL and 317 mg/dL and 299 mg/dL and 412 mg/dL and 441 mg/dL and 494 mg/dL and 399 mg/dL and 285 mg/dL | blood glucose / status of single mouse, (6/20) (NODSCID, head 'age (wks.)' 12, one line per mouse, 0.5 mg/kg): High (2×) and 566 mg/dl and 596 mg/dl and 568 mg/dl and 539 mg/dl and 338 mg/dl and 240 mg/dl and Dead and 576 mg/dl | blood glucose / status of single mouse, 7/4 (NODSCID, head 'age (wks.)' 14, one line per mouse, 0.5 mg/kg): 536 mg/dl and 402 mg/dl and Dead (5×) and 494 mg/dl and 558 mg/dl | blood glucose / status of single mouse, column 16 (7/18) (NODSCID, head 'age (wks.)' 16, one line per mouse): 571 mg/dL | blood glucose / status of single mouse, column 18 (8/1) (NODSCID, head 'age (wks.)' 18, one line per mouse): Dead
